Data reported in patent US6409810B1, “Water-soluble trisazo compounds, aqueous ink composition and colored article” (Nippon Kayaku Kabushiki Kaisha, priority 1997, dated 2002).

Assays:
Type in all cases: physicochemical
[1] = Test for resistance to light of the recorded images (carbon arc fade meter, Blue Scale JIS L-0841); conditions: 20 hours carbon arc fade meter; for light fastness (rank) ink jet paper A: ink jet print on ink jet paper A (Color BJ Paper LC 101, Canon); for light fastness (rank) ink jet paper B: ink jet print on ink jet paper B (coated paper STX73 A4, Sharp); for light fastness (rank) plain paper: ink jet print on plain paper (Canon TLB5A4S)
Description: (§1) A liquid having the following formulation was prepared and passed through a 0.45 μm membrane filter to obtain an aqueous ink composition for ink jet printers.
(§2) An ink jet recording was conducted on three different papers, i.e. plain papers (Canon printer paper A4 (TLB5A4S)), ink jet papers A (Color BJ Paper LC 101; ex. Canon) and ink jet papers B (coated papers for ink jet printer STX73 A4; ex. Sharp) by means of an ink jet printer (trade name NOVA JET III; ex. ENCAD). The thus-recorded images were tested with respect to the resistances to light and water and a color rendering property.
The recorded images were irradiated with light for 20 hours by means of a carbon arc fade meter (ex. SUGA Shikenkisha). Light fastness was judged according to the Blue Scale for light resistance standard as defined in JIS L-0841.

[2] = Test for resistance to water of the recorded images (immersion in water, visual examination of dropout); set-up: key to water fastness plain paper: ∘: Less amount of the compound was dropped out.; Δ: About half of the compound was dropped out.; X: Large amount of the compound was dropped out; conditions: immersed in water 2 minutes with mild stirring, dried; for water fastness ink jet paper A: ink jet print on ink jet paper A; for water fastness ink jet paper B: ink jet print on ink jet paper B; for water fastness plain paper: ink jet print on plain paper
Description: as §1, §2
Test specimen was immersed in water contained in a beaker with mild stirring for 2 minutes and dried. Amount of the compound was observed by the visual examination before and after the immersion, and dropout of the compound was judged.

[3] = Color rendering property (hue change under tungsten light versus standard light source, visual); conditions: hue change under tungsten light compared with standard light source
Description: as §1, §2
Discoloration was judged by the visual examination by comparing the hue change under the tungsten light with that under the standard light source.

Row | SMILES | light fastness (rank) ink jet paper A [1] [rank] | light fastness (rank) ink jet paper B [1] [rank] | light fastness (rank) plain paper [1] | water fastness ink jet paper A [2] | water fastness ink jet paper B [2] | water fastness plain paper [2] | color rendering property [3]
1 | COCCOc1cc(N=Nc2cc(S(=O)(=O)O)cc3cc(S(=O)(=O)O)cc(O)c23)c(N)cc1N=Nc1c(S(=O)(=O)O)cc2ccc(N=Nc3cc(S(=O)(=O)O)c(N)cc3N)cc2c1O [compound 0051] | 4 | 5 | 4-5 rank | ◯ | ◯ | ◯ | ◯
2 | COc1cc(N=Nc2cc(S(=O)(=O)O)cc3cc(S(=O)(=O)O)cc(O)c23)c(NC(C)=O)cc1N=Nc1c(S(=O)(=O)O)cc2cc(S(=O)(=O)O)c(N=Nc3ccc(N)cc3O)cc2c1O [compound 0231] | 4 | 5 | 4-5 rank | ◯ | ◯ | Δ | ◯
3 | COc1cc(N=Nc2cc(S(=O)(=O)O)cc3cc(S(=O)(=O)O)cc(O)c23)c(NC(C)=O)cc1N=Nc1c(S(=O)(=O)O)cc2cc(S(=O)(=O)O)c(N=Nc3ccc(O)cc3O)cc2c1O [compound 0232] | 4 | 4 | 4 rank | ◯ | ◯ | Δ˜◯ | ◯
4 | COc1cc(N=Nc2cc(S(=O)(=O)O)cc3cc(S(=O)(=O)O)cc(O)c23)c(NC(C)=O)cc1N=Nc1c(S(=O)(=O)O)cc2cc(S(=O)(=O)O)c(N=Nc3cc(S(=O)(=O)O)c(N)cc3N)cc2c1O [compound 0234] | 5 | 5 | 5 rank | ◯ | ◯ | Δ | ◯
5 | COc1cc(N=Nc2cc(S(=O)(=O)O)cc3cc(S(=O)(=O)O)cc(O)c23)c(N)cc1N=Nc1c(S(=O)(=O)O)cc2cc(S(=O)(=O)O)c(N=Nc3ccc(N)cc3O)cc2c1O [compound 0264] | 4 | 5 | 4-5 rank | ◯ | ◯ | ◯ | ◯
